# Laboratory results as given in patent publication US20020137929A1, “1 - (3-heterocyclylphenyl) isothiourea, -isourea, -guanidine and -amidine herbicidal agents” (Intellectual Property Department, BASF Aktiengesellschaft, priority 1998, published 2002).
# Assays:
# [1] = tested on: ORYSAT (Rice, Tebonnet); experiment: Preemergence herbicidal evaluation; format: in vivo, Oryza sativa, (L.) Tebonnet; conditions: rated 4-5 weeks after treatment
# Outline: (§1)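 Test compound, dissolved in aqueous acetone, was sprayed over planted soil cups at an equivalent of about 0.0156 to 0.500 kg/ha; seeds had been mixed with potting soil. Greenhouse growth followed, with visual 0-9 scoring of injury at four to five weeks.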
# [2] = tested on: GALAP (Galium); experiment: Postemergence herbicidal evaluation; format: in vivo, Galium aparine; conditions: postemergence
# Outline: (§2)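 Scores (0–9) reflect plant stand, vigor, malformation, size, chlorosis and general appearance relative to control, read 4 to 5 weeks after treatment and averaged where tests were repeated. Application: about 0.0156–0.500 kg/ha sprayed at 40 psi onto two-week seedlings.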
# [3] = tested on: CHEAL (Lambsquarters, Common); experiment: Preemergence herbicidal evaluation; format: in vivo, Chenopodium album; conditions: rated 4-5 weeks after treatment
# Outline: as §1
# [4] = tested on: CYPSE (Flatsedge); experiment: Preemergence weed control under flooded paddy conditions; format: in vivo, Cyperus serotinus; conditions: rated 3-4 weeks after treatment
# Outline: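 Greenhouse paddy assay. Acetone/water (50/50 v/v) solutions dosed into flood water, equivalent to about 0.0313 to 0.500 kg/ha active ingredient, over seeds planted 0.5 cm deep in silt loam. Score: 0-9 visual, based on stand, vigor, malformation, size and chlorosis, 3 to 4 weeks after treatment.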
# [5] = tested on: ECHORC (Watergrass (Calif.)); experiment: as above; format: in vivo, Echinochloa oryzoides; conditions: rated 3-4 weeks after treatment
# Outline: (§3)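 Visual injury scored 0-9 against control three to four weeks post-treatment, greenhouse-grown. Application: acetone/water (50/50) solutions dosed directly into flood water (1.5-3 cm over silt loam, planted top 0.5 cm), roughly 0.0313 to 0.500 kg/ha active ingredient.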
# [6] = tested on: AMBEL (Ragweed, Common); experiment: Preemergence herbicidal evaluation; format: in vivo, Ambrosia artemisifolia; conditions: rated 4-5 weeks after treatment
# Outline: as §1
# [7] = tested on: ZEAMX (Corn, Field); experiment: Postemergence herbicidal evaluation; format: in vivo, Zea mays; conditions: postemergence
# Outline: as §2
# [8] = tested on: IPOHE (Morningglory, Ivyleaf); experiment: Preemergence herbicidal evaluation; format: in vivo, Ipomoea hederacea; conditions: rated 4-5 weeks after treatment
# Outline: as §1
# [9] = tested on: CASOB (Sicklepod); experiment: Postemergence herbicidal evaluation; format: in vivo, Cassia obtusifolia; conditions: postemergence
# Outline: as §2
# [10] = tested on: CYPSE (Flatsedge); experiment: Postemergence weed control under flooded paddy conditions; format: in vivo, Cyperus serotinus; conditions: postemergence weeds, 3-4 weeks after treatment
# Outline: (§4)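 Flood-water application, about 0.0313–0.500 kg/ha a.i. in aqueous/acetone 50/50 v/v; water depth 1.5–3 cm throughout. Weeds 3–5 cm, rice 1.5–2.5 leaf. Greenhouse; 0–9 visual rating vs control at 3–4 wk.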
# [11] = tested on: TRZAWR (Wheat, Winter, cv Riband); experiment: Preemergence herbicidal evaluation; format: in vivo, Triticum aestivum; conditions: rated 4-5 weeks after treatment
# Outline: as §1
# [12] = tested on: ZEAMX (Corn, Field); experiment: Preemergence herbicidal evaluation; format: in vivo, Zea mays; conditions: rated 4-5 weeks after treatment
# Outline: as §1
# [13] = tested on: ECHORC (Watergrass (Calif.)); experiment: Postemergence weed control under flooded paddy conditions; format: in vivo, Echinochloa oryzoides; conditions: postemergence weeds, 3-4 weeks after treatment
# Outline: as §4
# [14] = tested on: CYPIR (Rice Flatsedge); experiment: Preemergence weed control under flooded paddy conditions; format: in vivo, Cyperus iria; conditions: rated 3-4 weeks after treatment
# Outline: as §3
smiles,measurement,setting,value
"COC(=O)CN1C(=O)CSC1=Nc1cc(-n2c(=O)cc(C(F)(F)F)n(C)c2=O)c(F)cc1Cl [Compound 17, Methyl 2-{{2-chloro-5-[3,6-dihydro-3-methyl-2,6-dioxo-4-(trifluoromethyl)-1(2H)-pyrimidinyl]-4-fluorophenyl}imino}-4-oxo-3-thiazolidineacetate]",ORYSAT preemergence herbicidal rating,[1]; rate 0.0156 kg/ha,0.0
same,ORYSAT preemergence herbicidal rating,[1]; rate 0.0313 kg/ha,0.0
same,ORYSAT preemergence herbicidal rating,[1]; rate 0.0625 kg/ha,1.0
same,ORYSAT preemergence herbicidal rating,[1]; rate 0.1250 kg/ha,1.0
same,ORYSAT preemergence herbicidal rating,[1]; rate 0.2500 kg/ha,3.3
same,ORYSAT preemergence herbicidal rating,[1]; rate 0.5000 kg/ha,6.5
same,GALAP herbicidal rating,[2]; rate 0.0156 kg/ha,1.5
same,GALAP herbicidal rating,[2]; rate 0.0313 kg/ha,3.5
same,GALAP herbicidal rating,[2]; rate 0.0625 kg/ha,5.5
same,GALAP herbicidal rating,[2]; rate 0.1250 kg/ha,6.0
same,CHEAL preemergence herbicidal rating,[3]; rate 0.0156 kg/ha,4.5
same,CHEAL preemergence herbicidal rating,[3]; rate 0.0313 kg/ha,6.0
same,CHEAL preemergence herbicidal rating,[3]; rate 0.0625 kg/ha,9.0
same,CHEAL preemergence herbicidal rating,[3]; rate 0.1250 kg/ha,9.0
same,CHEAL preemergence herbicidal rating,[3]; rate 0.2500 kg/ha,9.0
same,CHEAL preemergence herbicidal rating,[3]; rate 0.5000 kg/ha,9.0
same,Herbicidal rating CYPSE,[4]; 0.0313 kg/ha,9.0
same,Herbicidal rating CYPSE,[4]; 0.0625 kg/ha,9.0
same,Herbicidal rating CYPSE,[4]; 0.1250 kg/ha,9.0
same,Herbicidal rating CYPSE,[4]; 0.2500 kg/ha,9.0
same,Herbicidal rating ECHORC,[5]; 0.0313 kg/ha,4.0
same,Herbicidal rating ECHORC,[5]; 0.0625 kg/ha,9.0
same,Herbicidal rating ECHORC,[5]; 0.1250 kg/ha,9.0
same,Herbicidal rating ECHORC,[5]; 0.2500 kg/ha,9.0
same,AMBEL preemergence herbicidal rating,[6]; rate 0.0156 kg/ha,0.0
same,AMBEL preemergence herbicidal rating,[6]; rate 0.0313 kg/ha,0.7
same,AMBEL preemergence herbicidal rating,[6]; rate 0.0625 kg/ha,1.7
same,AMBEL preemergence herbicidal rating,[6]; rate 0.1250 kg/ha,4.3
same,AMBEL preemergence herbicidal rating,[6]; rate 0.2500 kg/ha,6.7
same,AMBEL preemergence herbicidal rating,[6]; rate 0.5000 kg/ha,9.0
same,ZEAMX herbicidal rating,[7]; rate 0.0156 kg/ha,7.0
same,ZEAMX herbicidal rating,[7]; rate 0.0313 kg/ha,7.3
same,ZEAMX herbicidal rating,[7]; rate 0.0625 kg/ha,7.8
same,ZEAMX herbicidal rating,[7]; rate 0.1250 kg/ha,7.8
same,IPOHE preemergence herbicidal rating,[8]; rate 0.0156 kg/ha,0.5
same,IPOHE preemergence herbicidal rating,[8]; rate 0.0313 kg/ha,0.7
same,IPOHE preemergence herbicidal rating,[8]; rate 0.0625 kg/ha,4.0
same,IPOHE preemergence herbicidal rating,[8]; rate 0.1250 kg/ha,5.7
same,IPOHE preemergence herbicidal rating,[8]; rate 0.2500 kg/ha,9.0
same,IPOHE preemergence herbicidal rating,[8]; rate 0.5000 kg/ha,9.0
same,CASOB herbicidal rating,[9]; rate 0.0156 kg/ha,0.0
same,CASOB herbicidal rating,[9]; rate 0.0313 kg/ha,1.0
same,CASOB herbicidal rating,[9]; rate 0.0625 kg/ha,1.0
same,CASOB herbicidal rating,[9]; rate 0.1250 kg/ha,5.5
same,Herbicidal rating CYPSE,[10]; rate 0.0313 kg/ha,9.0
same,Herbicidal rating CYPSE,[10]; rate 0.0625 kg/ha,9.0
same,Herbicidal rating CYPSE,[10]; rate 0.1250 kg/ha,9.0
same,Herbicidal rating CYPSE,[10]; rate 0.2500 kg/ha,9.0
same,TRZAWR preemergence herbicidal rating,[11]; rate 0.0156 kg/ha,0.0
same,TRZAWR preemergence herbicidal rating,[11]; rate 0.0313 kg/ha,0.0
same,TRZAWR preemergence herbicidal rating,[11]; rate 0.0625 kg/ha,0.0
same,TRZAWR preemergence herbicidal rating,[11]; rate 0.1250 kg/ha,2.0
same,TRZAWR preemergence herbicidal rating,[11]; rate 0.2500 kg/ha,7.0
same,TRZAWR preemergence herbicidal rating,[11]; rate 0.5000 kg/ha,7.0
same,ZEAMX preemergence herbicidal rating,[12]; rate 0.0156 kg/ha,0.0
same,ZEAMX preemergence herbicidal rating,[12]; rate 0.0313 kg/ha,0.3
same,ZEAMX preemergence herbicidal rating,[12]; rate 0.0625 kg/ha,1.0
same,ZEAMX preemergence herbicidal rating,[12]; rate 0.1250 kg/ha,1.0
same,ZEAMX preemergence herbicidal rating,[12]; rate 0.2500 kg/ha,3.3
same,ZEAMX preemergence herbicidal rating,[12]; rate 0.5000 kg/ha,5.5
same,Herbicidal rating ECHORC,[13]; rate 0.0313 kg/ha,4.0
same,Herbicidal rating ECHORC,[13]; rate 0.0625 kg/ha,9.0
same,Herbicidal rating ECHORC,[13]; rate 0.1250 kg/ha,9.0
same,Herbicidal rating ECHORC,[13]; rate 0.2500 kg/ha,9.0
same,Herbicidal rating CYPIR,[14]; 0.0313 kg/ha,0.0
same,Herbicidal rating CYPIR,[14]; 0.0625 kg/ha,0.0
same,Herbicidal rating CYPIR,[14]; 0.1250 kg/ha,6.0
same,Herbicidal rating CYPIR,[14]; 0.2500 kg/ha,9.0
"CCOC(=O)CN1C(=O)C(=C2CCCC2)SC1=Nc1cc(-n2c(=O)cc(C(F)(F)F)n(C)c2=O)c(F)cc1Cl [Compound 18, Ethyl 2-{{2-chloro-5-[3,6-dihydro-3-methyl-2,6-dioxo-4-(trifluoromethyl)-1(2H)-pyrimidinyl]-4-fluorophenyl}imino}-5-cyclopentylidene-4-oxo-3-thiazolidineacetate]",ORYSAT preemergence herbicidal rating,[1]; rate 0.1250 kg/ha,0.0
same,ORYSAT preemergence herbicidal rating,[1]; rate 0.2500 kg/ha,0.0
same,GALAP herbicidal rating,[2]; rate 0.0158 kg/ha,2.0
same,GALAP herbicidal rating,[2]; rate 0.0315 kg/ha,5.0
same,GALAP herbicidal rating,[2]; rate 0.0630 kg/ha,6.0
same,CHEAL preemergence herbicidal rating,[3]; rate 0.1250 kg/ha,8.0
same,CHEAL preemergence herbicidal rating,[3]; rate 0.2500 kg/ha,9.0
same,Herbicidal rating CYPSE,[4]; 0.1160 kg/ha,0.0
same,Herbicidal rating CYPSE,[4]; 0.2310 kg/ha,0.0
same,Herbicidal rating CYPSE,[4]; 0.4630 kg/ha,4.0
same,Herbicidal rating ECHORC,[5]; 0.1160 kg/ha,7.0
same,Herbicidal rating ECHORC,[5]; 0.2310 kg/ha,7.0
same,Herbicidal rating ECHORC,[5]; 0.4630 kg/ha,7.0
same,AMBEL preemergence herbicidal rating,[6]; rate 0.1250 kg/ha,1.0
same,AMBEL preemergence herbicidal rating,[6]; rate 0.2500 kg/ha,4.0
same,ZEAMX herbicidal rating,[7]; rate 0.0158 kg/ha,4.0
same,ZEAMX herbicidal rating,[7]; rate 0.0315 kg/ha,4.5
same,ZEAMX herbicidal rating,[7]; rate 0.0630 kg/ha,4.0
same,IPOHE preemergence herbicidal rating,[8]; rate 0.1250 kg/ha,0.0
same,IPOHE preemergence herbicidal rating,[8]; rate 0.2500 kg/ha,1.0
same,CASOB herbicidal rating,[9]; rate 0.0158 kg/ha,0.0
same,CASOB herbicidal rating,[9]; rate 0.0315 kg/ha,1.0
same,CASOB herbicidal rating,[9]; rate 0.0630 kg/ha,1.0
same,Herbicidal rating CYPSE,[10]; rate 0.1160 kg/ha,0.0
same,Herbicidal rating CYPSE,[10]; rate 0.2310 kg/ha,0.0
same,Herbicidal rating CYPSE,[10]; rate 0.4630 kg/ha,4.0
same,TRZAWR preemergence herbicidal rating,[11]; rate 0.1250 kg/ha,0.0
same,TRZAWR preemergence herbicidal rating,[11]; rate 0.2500 kg/ha,0.0
same,ZEAMX preemergence herbicidal rating,[12]; rate 0.1250 kg/ha,0.0
same,ZEAMX preemergence herbicidal rating,[12]; rate 0.2500 kg/ha,0.0
same,Herbicidal rating ECHORC,[13]; rate 0.1160 kg/ha,7.0
same,Herbicidal rating ECHORC,[13]; rate 0.2310 kg/ha,7.0
same,Herbicidal rating ECHORC,[13]; rate 0.4630 kg/ha,7.0
same,Herbicidal rating CYPIR,[14]; 0.1160 kg/ha,0.0
same,Herbicidal rating CYPIR,[14]; 0.2310 kg/ha,0.0
same,Herbicidal rating CYPIR,[14]; 0.4630 kg/ha,0.0
